# Entries after “also recorded” stand apart in the source; their conditions may differ.
# Legend:
# Jurkat cells = test: Fluorescent microscopy of DDL uptake by Jurkat cells induced to undergo apoptosis by anti-Fas antibody; format: cell-based, human
# Method: FIG. 1: Jurkat cells were treated with anti-Fas antibody (0.1 μg/ml) for three hours. As a result, a marked percentage of the cells became apoptotic (i.e., PLS-activated cells). For subsequent inhibition of PLS, culture was then treated for 30 minutes with EGTA (1 mM) and BAPTA (20 μM), (i.e., PLS-inhibited culture). Both cultures were treated with DDL (1 μM, 2 minutes) and visualized by a fluorescent microscope (Olympus):
# Cultured Jurkat cells (human adult T cell leukemia cells) were grown in suspension in RPMI medium (Beit-Haemek, Israel), supplemented with 10% of fetal calf serum (FCS), 4 mM of L-glutamine, 1 mM of sodium pyruvate, 1 mM CaCl2 and antibiotics (100 units/ml penicilin; 100 μg/ml streptomycin and 12.5 units/ml of nystatin). Prior to induction of apoptosis, medium was replaced with HBS buffer (10 mM HEPES; 140 mM NaCl, 1 mM CaCl). Apoptosis was then triggered by treatment with anti-Fas Ab (0.1 μg/ml; 3 hrs).
# Such a procedure culminates in accumulation of a large percentage of apoptotic cells within the culture. Culture was then incubated with DDL at a final concentration of 1 μM for 5 minutes, and then taken immediately for fluorescent microscopy [Olympus fluorescent microscope, model IX70, excitation wavelength of 360 nm, emission at 530 nm].
# Modulation of PLS activity was achieved by the calcium depletion-repletion procedure (Momchilova, A., et al., 2000). Inhibition of PLS by Ca^2+-deprivation was performed by cell incubation with the extra-and intracellular chelating agents EGTA (Ethylen glycol-bis (β-aminoethyl ether)-N,N,N′-tetraacetic acid, 1 mM) and BAPTA-AM ([1,2-bis(o-Amino-phenoxy) ethane-N,N,N′,N′-tetraacetic acid tetra-(acetoxymethyl) ester, 20 μM, respectively. Such a procedure eliminates any traces of Ca^2+ possibly present either intra- or extra-cellularly. Subsequent to the induction of apoptosis for three hours, cells were subjected to said PLS inhibition for 30 minutes. Cells were then incubated with DDL for 5 minutes, and subjected to fluorescent microscopy.
# For re-activation of PLS, the EGTA/BAPTA-treated cells were now treated with CaCl (1 mM) and calcium ionophore A23187 (2 μM, Calbiochem, Darmstadt, Germany), thus elevating ambient Ca^2+ levels.
# HeLa S3 cells = test: Flow-cytometric (FACS) analysis of DDL binding to apoptotic cells in aged HeLa culture; format: cell-based; conditions: HeLa aged 96 h
# Method: FIG. 2: HeLa cells were allowed to age by incubating the culture for 96 hours without exchange of the growth medium. As a result, a marked percentage of the cells became apoptotic. Cells were then incubated with DDL (1 μM, 2 minutes) under three different conditions: PLS-activation; PLS-inhibition; and reactivation of inhibited-PLS as defined above. Shown is quantitative analysis of fluorescence intensity (geomean) values.
# For this purpose, cultured, aged HeLa S3 cells (ATCC CCL-2.2) were grown in Dulbecco's modified Eagle's medium (DMEM), containing CaCl (1.8 mM) and supplemented with 2 mM of L-glutamine; 100 units/ml of penicillin; 100 μg/ml of streptomycin; 12.5 units/ml of nystatin and 10% of fetal calf serum (FCS). Cells were seeded at a density of 5×10^6 cells/plate on a […] culture plates in a volume of 10 ml, and were allowed to age in culture for 96 hours without exchange of the growing medium. Such a procedure culminates in a large percentage of apoptotic cells within the culture. Culture (1×10^7/ml) was then incubated with DDL at a final concentration of 5 μM in HBS for 5 minutes, and taken immediately for FACS analysis for detection of bound DDL, using Becton-Dickinson cell sorter and CellQuest software. Excitation was at 360 nm and emission was measured at 530 nm.
# Three different conditions were examined (FIG. 2): PLS-activation by the apoptotic process, PLS-inhibition; and reactivation of inhibited-PLS.
compound,measurement,setting,value
CN(C)c1cccc2c(S(=O)(=O)NCCCCC(NS(=O)(=O)c3cccc4c(N(C)C)cccc34)C(=O)O)cccc12 (centres unmarked) [DDL],DDL uptake after re-activation of PLS,Jurkat cells; EGTA/BAPTA-treated cells + Ca2+ 1 mM + calcium ionophore A23187 2 μM,"re-acquisition of a strong DDL uptake; also recorded: fast, selective and marked uptake"
same,DDL uptake (fluorescence) by apoptotic cells,"Jurkat cells; PLS-activated culture, anti-Fas Ab 0.1 μg/ml 3 h, DDL 1 μM",Some of the cells manifest DDL binding; also recorded: Selective and fast uptake
same,Intracellular localisation of DDL fluorescence,Jurkat cells; apoptotic cells,staining the cytoplasm but not the nucleus; also recorded: in the cytoplasm of those cells but not within the nuclei
same,DDL uptake (fluorescence intensity) after PLS inhibition,"Jurkat cells; apoptotic cells, Ca2+-deprivation: EGTA 1 mM + BAPTA 20 μM, 30 min, DDL 1 μM",marked reduction in the intensity of DDL-binding; also recorded: marked decrease in DDL uptake
same,DDL binding by intact cells not undergoing apoptosis,"Jurkat cells; same culture, DDL 1 μM",did not bind manifest significant DDL
same,DDL binding (fluorescence shift) after reactivation of PLS,HeLa S3 cells; Ca2+ re-administration,restored this shift
same,DDL binding (fluorescence shift) after PLS inhibition,HeLa S3 cells; Ca2+-deprivation,almost completely abolished this shift
same,"DDL binding (fluorescence shift), PLS-activated apoptotic cells",HeLa S3 cells; PLS-activation by the apoptotic process,distinct shift to higher fluorescence levels
